Experimental data: patent US20080070860A1, “Adenosine Analogs Useful as Anti-Bacterial and Anti Protozoan Agents” (UTI LIMITED PARTNERSHIP, priority 2005, published 2008)

target: T1, adenosine phosphorylase (Escherichia coli, UniProt P0ABP8); experiment: Adenosine phosphorylase assay (cleavage of nucleoside analog to base, E. coli cell free lysate, HPLC); format: biochemical, Escherichia coli DH5alpha; conditions: 100 μM nucleoside analog, 20 min, 50 mM phosphate pH 7.4
T1 construct: assayed using the cell free lysate of E. coli as enzyme source; endogenous in cells; host or cells: Escherichia coli DH5alpha (cell-free lysate, 10,000 x g supernatant)
Description: Escherichia coli DH5alpha cells were used as the source of adenosine phosphorylase to test the compounds of the present invention. E. coli DH5 alpha cells were harvested in log phase and collected by centrifugation. Cells were lysed by sonication, centrifuged at 10,000×g for 30 min and the supernatant was recovered for assay or storage at −60° C.
Adenosine phosphorylase activity was assayed using the cell free lysate of E. coli as enzyme source for catalysis of the cleavage of nucleoside analogs to their corresponding base analogs in the presence of 50 mM phosphate at pH 7.4. Reaction products were subjected to separation by reverse phase high performance liquid chromatography (HPLC) equipped with continuous scanning diode array detector as described below. Substrates and products were identified by retention time and UV spectra of their peaks.
Samples for HPLC were prepared post reaction by deproteination with 10% v/v of 50% TCA. Following centrifugation at 10,000 g for 5 min the supernatant was recovered for neutralization. A minimal amount of bromophenol blue was added and the sample was titrated with alamine-freon. Following a further centrifugation at 10,000 g for 5 min, the neutralized sample may be stored at −60° C.
Nucleosides and bases in a 10 μl sample were separated on an HPLC equipped with a scanning UV detector from 220 to 320 nm at 5 nm intervals, utilizing a reverse phase Waters Symmetry C18, 4.6×150 mm, 5 um column in tandem with a Waters guard column.
Compounds were identified by retention time and UV spectra at peak height as collected during separation.
The relative rate of conversion of 100 μM nucleoside analog to the corresponding base in 20 min (measured as the % of analog converted) was determined for the following compounds: 5′-deoxyadenosine, 41%; 2-chloroadenosine, 31%; 2-chloro-5′-deoxyadenosine, 8%; 2-fluoro-5′-deoxyadenosine, >80%; 6-thiopurine-5′-deoxyriboside, 61%; 2-amino-5′-deoxyadenosine, 7%.

T1 sequence (P0ABP8 2-239): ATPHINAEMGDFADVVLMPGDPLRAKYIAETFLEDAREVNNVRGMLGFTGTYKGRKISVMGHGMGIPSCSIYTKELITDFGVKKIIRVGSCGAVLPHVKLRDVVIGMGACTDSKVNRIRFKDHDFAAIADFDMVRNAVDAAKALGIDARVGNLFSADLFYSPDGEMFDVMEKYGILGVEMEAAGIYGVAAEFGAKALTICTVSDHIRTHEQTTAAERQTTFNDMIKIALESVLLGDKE

Compound	relative rate of conversion of nucleoside analog to the corresponding base (% of analog converted) [%]
C[C@H]1O[C@@H](n2cnc3c(N)nc(N)nc32)[C@H](O)[C@@H]1O [2-amino-5′-deoxyadenosine]	7
C[C@H]1O[C@@H](n2cnc3c(N)nc(Cl)nc32)[C@H](O)[C@@H]1O [2-chloro-5′-deoxyadenosine]	8
Nc1nc(Cl)nc2c1ncn2[C@@H]1O[C@H](CO)[C@@H](O)[C@H]1O [2-chloroadenosine, reference compound]	31
C[C@H]1O[C@@H](n2cnc3c(N)nc(F)nc32)[C@H](O)[C@@H]1O [2-fluoro-5′-deoxyadenosine]	> 80
C[C@H]1O[C@@H](n2cnc3c(N)ncnc32)[C@H](O)[C@@H]1O [5′-deoxyadenosine]	41
C[C@H]1O[C@@H](n2cnc3c(S)ncnc32)[C@H](O)[C@@H]1O [6-thiopurine-5′-deoxyriboside, 6-mercaptopurine-5′-deoxy-β-D-riboside]	61

test system: not given; experiment: not given; conditions: not given

Compound	melting point [°C]
COC[C@H]1O[C@@H](n2cnc3c(N)nc(Cl)nc32)[C@H](O)[C@@H]1O	92 to 94
COC[C@H]1O[C@@H](n2cnc3c(N)nc(F)nc32)[C@H](O)[C@@H]1O	231 to 233
C[C@H]1O[C@@H](n2cnc3c(N)nc(N)nc32)[C@H](O)[C@@H]1O [2-amino-5′-deoxyadenosine]	135 to 138
C[C@H]1O[C@@H](n2cnc3c(N)nc(F)nc32)[C@H](O)[C@@H]1O [2-fluoro-5′-deoxyadenosine]	244 to 245

target: T2, adenosine deaminase (Homo sapiens, UniProt P00813); experiment: not given; conditions: cited from earlier work
T2 sequence (P00813 1-363): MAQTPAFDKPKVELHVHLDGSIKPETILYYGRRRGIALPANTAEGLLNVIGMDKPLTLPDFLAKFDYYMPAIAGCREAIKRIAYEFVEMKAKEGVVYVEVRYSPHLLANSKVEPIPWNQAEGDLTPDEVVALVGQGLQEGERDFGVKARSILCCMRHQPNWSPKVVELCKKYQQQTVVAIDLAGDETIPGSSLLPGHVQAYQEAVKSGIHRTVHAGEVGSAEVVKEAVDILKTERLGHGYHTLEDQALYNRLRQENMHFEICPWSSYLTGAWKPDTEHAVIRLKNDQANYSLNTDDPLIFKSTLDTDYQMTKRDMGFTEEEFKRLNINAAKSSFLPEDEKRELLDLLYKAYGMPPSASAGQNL

Compound	susceptibility to adenosine deaminase
Cc1ncnc2nc[nH]c12 [6-methylpurine]	quite refractory

target: adenosine kinase (Homo sapiens, UniProt P55263); experiment: not given; conditions: Kowaluk et al. 1998; cited from earlier work
Sequence (P55263 whole entry, species assumed): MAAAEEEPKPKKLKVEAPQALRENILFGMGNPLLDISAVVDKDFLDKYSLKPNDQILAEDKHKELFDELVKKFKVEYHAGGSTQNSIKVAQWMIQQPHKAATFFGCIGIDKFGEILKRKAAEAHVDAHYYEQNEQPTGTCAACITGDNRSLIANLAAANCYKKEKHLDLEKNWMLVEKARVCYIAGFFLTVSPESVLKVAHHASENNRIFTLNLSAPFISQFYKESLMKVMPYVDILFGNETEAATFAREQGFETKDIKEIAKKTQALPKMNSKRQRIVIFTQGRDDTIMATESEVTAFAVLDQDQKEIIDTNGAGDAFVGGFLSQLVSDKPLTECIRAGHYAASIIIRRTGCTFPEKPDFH

Compound	inhibition of adenosine kinase
NC[C@H]1O[C@@H](n2cnc3c(N)ncnc32)[C@H](O)[C@@H]1O [5′-deoxy-5′-amino-adenosine]	potent inhibitor
